In brackets after ≈: the same amount, converted by molar mass.
How the values were obtained:
[1] = molecular target: T1, Transient receptor potential cation channel subfamily V member 4 (Homo sapiens, UniProt Q9HBA0); experiment: Agonist activity at ionomycin-stimulated TRPV4 (unknown origin) activation assessed as efficacy relative to control
[2] = molecular target: T2, Transient receptor potential cation channel subfamily V member 3 (Homo sapiens, UniProt Q8NET8); experiment: Agonist activity at ionomycin-stimulated TRPV3 (unknown origin) activation
T2 sequence (Q8NET8 whole entry): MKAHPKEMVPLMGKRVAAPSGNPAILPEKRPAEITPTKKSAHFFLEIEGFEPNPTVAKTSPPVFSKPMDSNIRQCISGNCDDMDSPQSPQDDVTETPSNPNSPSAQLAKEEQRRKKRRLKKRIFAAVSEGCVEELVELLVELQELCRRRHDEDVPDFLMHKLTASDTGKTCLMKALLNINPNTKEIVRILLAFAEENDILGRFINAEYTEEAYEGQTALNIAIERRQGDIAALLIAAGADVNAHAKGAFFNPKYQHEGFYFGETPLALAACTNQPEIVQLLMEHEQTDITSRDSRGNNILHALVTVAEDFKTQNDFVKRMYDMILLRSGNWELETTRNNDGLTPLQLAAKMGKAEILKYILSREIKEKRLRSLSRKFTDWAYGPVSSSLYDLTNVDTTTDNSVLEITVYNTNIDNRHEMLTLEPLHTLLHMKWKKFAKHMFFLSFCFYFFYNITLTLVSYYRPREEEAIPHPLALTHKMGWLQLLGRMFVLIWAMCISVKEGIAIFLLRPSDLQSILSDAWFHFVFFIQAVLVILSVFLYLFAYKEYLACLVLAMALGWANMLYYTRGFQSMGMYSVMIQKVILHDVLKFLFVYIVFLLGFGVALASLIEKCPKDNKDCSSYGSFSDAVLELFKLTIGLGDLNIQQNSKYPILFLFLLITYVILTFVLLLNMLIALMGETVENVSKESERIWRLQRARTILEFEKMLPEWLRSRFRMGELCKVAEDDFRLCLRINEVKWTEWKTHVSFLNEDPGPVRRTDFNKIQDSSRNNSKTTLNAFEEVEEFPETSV

[3] = molecular target: T3, Transient receptor potential cation channel subfamily V member 2 (Homo sapiens, UniProt Q9Y5S1); experiment: Agonist activity at ionomycin-stimulated TRPV2 (unknown origin) channel desensitization in presence of lysophosphatidylcholine
T3 sequence (Q9Y5S1 whole entry): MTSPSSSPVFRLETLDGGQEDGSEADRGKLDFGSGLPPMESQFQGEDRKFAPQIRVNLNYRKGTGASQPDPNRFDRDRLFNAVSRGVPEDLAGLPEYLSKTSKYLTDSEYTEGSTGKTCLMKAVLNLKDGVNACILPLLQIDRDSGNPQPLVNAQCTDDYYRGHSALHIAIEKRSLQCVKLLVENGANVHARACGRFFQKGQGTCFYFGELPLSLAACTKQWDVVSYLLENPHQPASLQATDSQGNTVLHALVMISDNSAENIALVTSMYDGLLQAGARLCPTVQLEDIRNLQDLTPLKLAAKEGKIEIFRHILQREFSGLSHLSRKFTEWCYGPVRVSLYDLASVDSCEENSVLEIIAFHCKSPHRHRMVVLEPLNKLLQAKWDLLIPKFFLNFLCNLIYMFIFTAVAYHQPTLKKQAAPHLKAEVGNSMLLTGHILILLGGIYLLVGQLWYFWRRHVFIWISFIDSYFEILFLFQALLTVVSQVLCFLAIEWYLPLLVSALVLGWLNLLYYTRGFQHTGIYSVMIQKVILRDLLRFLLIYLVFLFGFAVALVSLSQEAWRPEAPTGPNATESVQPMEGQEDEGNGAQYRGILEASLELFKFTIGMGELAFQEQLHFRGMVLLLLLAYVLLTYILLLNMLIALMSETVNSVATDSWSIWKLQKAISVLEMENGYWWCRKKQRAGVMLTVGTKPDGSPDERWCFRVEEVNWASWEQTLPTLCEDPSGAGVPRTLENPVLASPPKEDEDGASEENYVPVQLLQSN

[4] = molecular target: T4, Transient receptor potential cation channel subfamily A member 1 (Homo sapiens, UniProt O75762); experiment: Agonist activity at TRPA1 (unknown origin) channel desensitization in presence of isothiocyanate
T4 sequence (O75762 whole entry): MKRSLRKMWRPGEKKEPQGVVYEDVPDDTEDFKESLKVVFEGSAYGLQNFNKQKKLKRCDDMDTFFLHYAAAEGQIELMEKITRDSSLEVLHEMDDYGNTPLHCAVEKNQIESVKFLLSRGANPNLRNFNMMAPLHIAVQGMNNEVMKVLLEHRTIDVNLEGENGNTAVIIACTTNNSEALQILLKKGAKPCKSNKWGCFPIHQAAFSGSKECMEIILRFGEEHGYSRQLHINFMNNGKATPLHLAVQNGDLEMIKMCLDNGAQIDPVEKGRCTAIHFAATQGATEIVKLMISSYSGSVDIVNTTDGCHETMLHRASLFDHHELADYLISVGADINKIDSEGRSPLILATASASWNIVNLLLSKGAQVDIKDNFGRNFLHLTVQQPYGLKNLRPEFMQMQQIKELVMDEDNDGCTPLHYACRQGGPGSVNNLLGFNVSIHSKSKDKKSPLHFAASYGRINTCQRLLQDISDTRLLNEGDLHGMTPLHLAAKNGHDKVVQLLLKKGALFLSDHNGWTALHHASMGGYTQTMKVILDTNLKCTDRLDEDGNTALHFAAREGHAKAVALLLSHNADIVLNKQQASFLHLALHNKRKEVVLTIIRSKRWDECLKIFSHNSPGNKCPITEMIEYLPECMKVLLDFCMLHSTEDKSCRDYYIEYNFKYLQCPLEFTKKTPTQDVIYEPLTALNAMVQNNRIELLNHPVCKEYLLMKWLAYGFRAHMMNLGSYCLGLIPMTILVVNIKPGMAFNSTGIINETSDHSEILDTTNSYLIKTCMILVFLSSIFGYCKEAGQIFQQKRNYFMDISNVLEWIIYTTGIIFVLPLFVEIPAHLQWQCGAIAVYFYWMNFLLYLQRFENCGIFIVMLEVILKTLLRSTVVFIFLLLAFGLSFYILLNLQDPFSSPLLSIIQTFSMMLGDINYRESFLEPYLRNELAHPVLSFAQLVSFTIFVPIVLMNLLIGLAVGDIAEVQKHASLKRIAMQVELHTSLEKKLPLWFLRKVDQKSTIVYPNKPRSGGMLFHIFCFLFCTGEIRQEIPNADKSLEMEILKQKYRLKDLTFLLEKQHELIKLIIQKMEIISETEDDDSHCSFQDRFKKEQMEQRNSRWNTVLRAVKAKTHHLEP

Cannabinoid receptor 1 [5] = molecular target: T5, Cannabinoid receptor 1 (Homo sapiens, UniProt P21554); experiment: Displacement of [35S]GTPgammaS from human CB1 receptor expressed in CHO cells; type: cell-based
T5 sequence (P21554 whole entry): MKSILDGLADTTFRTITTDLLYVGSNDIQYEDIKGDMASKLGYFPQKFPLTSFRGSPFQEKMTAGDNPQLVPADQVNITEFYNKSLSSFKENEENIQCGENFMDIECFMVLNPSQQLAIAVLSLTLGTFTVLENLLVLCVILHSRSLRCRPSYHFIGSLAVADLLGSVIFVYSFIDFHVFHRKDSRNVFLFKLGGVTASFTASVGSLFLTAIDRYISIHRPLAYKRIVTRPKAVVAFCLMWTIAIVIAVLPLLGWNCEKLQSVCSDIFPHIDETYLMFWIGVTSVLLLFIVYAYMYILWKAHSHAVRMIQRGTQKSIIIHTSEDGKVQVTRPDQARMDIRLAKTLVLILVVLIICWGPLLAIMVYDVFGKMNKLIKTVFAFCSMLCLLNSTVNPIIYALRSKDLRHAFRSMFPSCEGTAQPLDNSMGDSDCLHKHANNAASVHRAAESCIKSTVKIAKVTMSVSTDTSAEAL

Staphylococcus aureus [6] = experiment: Antibiofilm activity against methicillin-resistant Staphylococcus aureus USA300 incubated for 24 hrs by crystal violet staining based assay; type: functional
[7] = Agonist activity at CB2 receptor in albino MF1 mouse vas deferens assessed as inhibition of electrically evoked vas deferens contraction by incubated for 13 mins followed by electrical stimulation for 2 mins
[8] = molecular target: T3, Transient receptor potential cation channel subfamily V member 2; experiment: Agonist activity at ionomycin-stimulated TRPV2 (unknown origin) activation
[9] = molecular target: Alpha-2A adrenergic receptor (Homo sapiens) (UniProt P08913); experiment: Displacement of [35S]GTPgammaS from human alpha2-adreno receptor receptor expressed in CHO cells; type: cell-based
Chain of Alpha-2A adrenergic receptor (Homo sapiens) (P08913 whole entry): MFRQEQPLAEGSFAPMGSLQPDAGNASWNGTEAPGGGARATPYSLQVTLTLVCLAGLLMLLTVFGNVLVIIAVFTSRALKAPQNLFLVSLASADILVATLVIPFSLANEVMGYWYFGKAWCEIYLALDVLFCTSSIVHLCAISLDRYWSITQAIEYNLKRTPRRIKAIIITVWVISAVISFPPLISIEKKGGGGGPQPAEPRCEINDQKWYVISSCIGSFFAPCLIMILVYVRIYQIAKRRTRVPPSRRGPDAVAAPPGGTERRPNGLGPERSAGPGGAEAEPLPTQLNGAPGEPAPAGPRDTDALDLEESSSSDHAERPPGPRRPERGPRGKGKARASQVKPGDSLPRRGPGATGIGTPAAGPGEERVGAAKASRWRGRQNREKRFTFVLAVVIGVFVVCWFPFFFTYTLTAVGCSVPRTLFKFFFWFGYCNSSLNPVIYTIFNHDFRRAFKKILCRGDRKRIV

Cannabinoid receptor 1 [10] = molecular target: T5, Cannabinoid receptor 1; experiment: Displacement of [3H]-WIN55212-2 from human CB1 receptor transfected in CHO cell membrane incubated for 90 mins by Liquid scintillation counter analysis; type: cell membranes
[11] = molecular target: T4, Transient receptor potential cation channel subfamily A member 1; experiment: Agonist activity at TRPA1 (unknown origin) activation
[12] = molecular target: T4, Transient receptor potential cation channel subfamily A member 1; experiment: Agonist activity at TRPA1 (unknown origin) activation assessed as efficacy relative to control; details: filed as agonist
[13] = molecular target: T6, Transient receptor potential cation channel subfamily V member 3 (Homo sapiens) (UniProt Q8NET8); experiment: Agonist activity at ionomycin-stimulated TRPV3 (unknown origin) activation assessed as efficacy relative to control
T6 sequence (whole entry): T2 sequence (Q8NET8 whole entry)

Escherichia coli = experiment: […] activity against Escherichia coli in presence of polymyxin; type: functional
[14] = molecular target: Transient receptor potential cation channel subfamily V member 1 (Homo sapiens, UniProt Q8NER1); experiment: Agonist activity at ionomycin-stimulated TRPV1 (unknown origin) activation assessed as efficacy relative to control
Chain of Transient receptor potential cation channel subfamily V member 1 (Q8NER1 whole entry): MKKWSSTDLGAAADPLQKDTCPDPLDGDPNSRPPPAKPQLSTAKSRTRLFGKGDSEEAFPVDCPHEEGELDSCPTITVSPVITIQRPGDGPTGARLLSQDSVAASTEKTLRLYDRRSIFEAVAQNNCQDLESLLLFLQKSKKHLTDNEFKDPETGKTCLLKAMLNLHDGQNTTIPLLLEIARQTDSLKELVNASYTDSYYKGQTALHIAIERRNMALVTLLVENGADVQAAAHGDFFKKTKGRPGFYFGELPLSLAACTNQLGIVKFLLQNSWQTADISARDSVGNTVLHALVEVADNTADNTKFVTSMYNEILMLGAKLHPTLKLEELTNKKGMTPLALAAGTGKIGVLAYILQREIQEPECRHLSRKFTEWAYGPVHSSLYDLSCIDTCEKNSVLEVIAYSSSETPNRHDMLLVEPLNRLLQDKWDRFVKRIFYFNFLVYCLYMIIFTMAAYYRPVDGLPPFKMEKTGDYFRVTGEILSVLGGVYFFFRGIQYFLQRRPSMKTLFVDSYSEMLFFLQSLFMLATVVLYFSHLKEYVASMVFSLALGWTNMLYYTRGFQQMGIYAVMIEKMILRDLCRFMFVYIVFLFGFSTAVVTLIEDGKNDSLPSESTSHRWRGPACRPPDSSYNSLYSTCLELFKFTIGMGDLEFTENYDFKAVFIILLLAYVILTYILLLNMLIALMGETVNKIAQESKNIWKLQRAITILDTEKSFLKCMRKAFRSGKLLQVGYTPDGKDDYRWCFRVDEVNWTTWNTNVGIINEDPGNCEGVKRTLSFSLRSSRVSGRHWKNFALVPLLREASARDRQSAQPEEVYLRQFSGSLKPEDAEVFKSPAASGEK

[15] = molecular target: Cannabinoid receptor 1 (Mus musculus) (UniProt P47746); experiment: Agonist activity at CB1 receptor in albino MF1 mouse vas deferens assessed as inhibition of electrically evoked vas deferens contraction by incubated for 13 mins followed by electrical stimulation for 2 mins; type: functional; details: filed as antagonist, time 15.0 min
Chain of Cannabinoid receptor 1 (Mus musculus) (P47746 whole entry): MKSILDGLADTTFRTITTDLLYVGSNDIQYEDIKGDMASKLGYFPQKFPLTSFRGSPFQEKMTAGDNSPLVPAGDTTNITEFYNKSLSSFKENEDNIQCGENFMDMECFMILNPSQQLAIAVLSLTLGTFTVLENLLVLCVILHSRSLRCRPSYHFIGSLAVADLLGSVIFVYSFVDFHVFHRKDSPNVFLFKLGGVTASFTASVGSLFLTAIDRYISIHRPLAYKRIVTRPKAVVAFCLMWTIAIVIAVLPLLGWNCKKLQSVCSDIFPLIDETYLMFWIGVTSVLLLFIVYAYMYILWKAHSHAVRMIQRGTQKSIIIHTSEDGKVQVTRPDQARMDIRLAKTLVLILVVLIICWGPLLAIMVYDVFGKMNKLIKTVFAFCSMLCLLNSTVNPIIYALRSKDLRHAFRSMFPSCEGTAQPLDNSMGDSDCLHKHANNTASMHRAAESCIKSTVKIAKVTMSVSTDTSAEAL

[16] = molecular target: T1, Transient receptor potential cation channel subfamily V member 4; experiment: Agonist activity at ionomycin-stimulated TRPV4 (unknown origin) channel desensitization in presence of 4alphaPDD
Cannabinoid receptor 1 [17] = molecular target: Cannabinoid receptor 1 (Rattus norvegicus, UniProt P20272); experiment: Displacement of [35S]GTPgammaS from CB1 receptor in rat brain; type: tissue-based
Chain of Cannabinoid receptor 1 (Rattus norvegicus, UniProt P20272) (P20272 whole entry): as the sequence (P47746 whole entry) above, with D95E counted along it

[18] = molecular target: T7, Transient receptor potential cation channel subfamily V member 2 (Homo sapiens) (UniProt Q9Y5S1); experiment: Agonist activity at ionomycin-stimulated TRPV2 (unknown origin) activation assessed as efficacy relative to control; details: filed as agonist
T7 sequence (whole entry): T3 sequence (Q9Y5S1 whole entry)

[19] = molecular target: T2, Transient receptor potential cation channel subfamily V member 3; experiment: Agonist activity at ionomycin-stimulated TRPV3 (unknown origin) channel desensitization in presence of carvacrol
[20] = molecular target: T1, Transient receptor potential cation channel subfamily V member 4; experiment: Agonist activity at ionomycin-stimulated TRPV4 (unknown origin) activation
Staphylococcus aureus [21] = experiment: Antibiofilm activity against methicillin-resistant Staphylococcus aureus USA300 incubated for 24 hrs by CLSI based assay; type: functional
Staphylococcus aureus [22] = experiment: Antibacterial activity against methicillin-resistant Staphylococcus aureus USA300 infected in mouse assessed as log10 reduction in bacterial load in spleen at 100 mg/kg ,ip measured for 30 mins; type: functional; details: 0.5 h
Cannabinoid receptor 2 = Cannabinoid receptor 2 (Homo sapiens, UniProt P34972); experiment: Binding affinity to human CB2 receptor assessed as inhibition constant
Chain of Cannabinoid receptor 2 (P34972 whole entry): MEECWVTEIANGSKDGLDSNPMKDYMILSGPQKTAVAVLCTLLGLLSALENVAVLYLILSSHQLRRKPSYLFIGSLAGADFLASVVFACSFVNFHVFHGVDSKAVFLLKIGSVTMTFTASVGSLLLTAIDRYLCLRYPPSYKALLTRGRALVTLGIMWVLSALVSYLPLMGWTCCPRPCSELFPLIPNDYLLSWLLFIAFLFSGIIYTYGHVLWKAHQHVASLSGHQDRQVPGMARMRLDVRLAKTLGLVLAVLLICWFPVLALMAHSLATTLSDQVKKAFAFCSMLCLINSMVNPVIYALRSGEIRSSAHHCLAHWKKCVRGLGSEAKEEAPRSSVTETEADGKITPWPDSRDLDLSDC

Cannabinoid receptor 1 [23] = molecular target: T5, Cannabinoid receptor 1; experiment: Binding affinity to CB1 (unknown origin) receptor assessed as inhibition constant

T1 sequence (Q9HBA0 whole entry): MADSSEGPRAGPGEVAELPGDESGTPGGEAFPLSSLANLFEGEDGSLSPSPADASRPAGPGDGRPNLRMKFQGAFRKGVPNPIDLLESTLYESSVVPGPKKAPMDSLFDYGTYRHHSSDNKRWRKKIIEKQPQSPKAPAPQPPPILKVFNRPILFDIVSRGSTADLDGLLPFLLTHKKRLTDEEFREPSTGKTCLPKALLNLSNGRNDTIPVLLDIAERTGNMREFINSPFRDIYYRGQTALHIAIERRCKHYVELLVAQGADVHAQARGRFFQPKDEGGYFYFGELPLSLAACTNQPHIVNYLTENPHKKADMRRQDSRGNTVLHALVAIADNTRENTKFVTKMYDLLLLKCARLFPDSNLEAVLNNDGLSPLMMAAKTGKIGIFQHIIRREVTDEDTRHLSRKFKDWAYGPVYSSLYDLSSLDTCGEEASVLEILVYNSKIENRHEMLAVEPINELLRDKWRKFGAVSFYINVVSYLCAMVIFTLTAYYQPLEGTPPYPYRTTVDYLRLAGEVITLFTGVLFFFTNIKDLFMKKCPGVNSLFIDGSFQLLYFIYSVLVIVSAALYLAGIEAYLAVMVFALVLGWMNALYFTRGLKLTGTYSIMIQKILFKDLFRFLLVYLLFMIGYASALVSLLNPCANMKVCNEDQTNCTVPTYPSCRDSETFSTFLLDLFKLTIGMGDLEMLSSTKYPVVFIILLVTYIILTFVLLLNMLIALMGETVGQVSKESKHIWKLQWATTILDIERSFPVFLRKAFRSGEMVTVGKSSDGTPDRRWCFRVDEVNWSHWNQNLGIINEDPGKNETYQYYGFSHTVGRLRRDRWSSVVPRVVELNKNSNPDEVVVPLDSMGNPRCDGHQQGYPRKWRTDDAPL

Compound: CCCCCc1cc(O)c(C/C=C(\C)CCC=C(C)C)c(O)c1 [CANNABIGEROL]
- Efficacy [1]: 24%
- EC50 [2]: 1 µM
- IC50 [3]: 1.5 µM
- IC50 [4]: 13 µM
- Ki (Cannabinoid receptor 1 [5]): 2.6 µM
- MIC (Staphylococcus aureus [6]): 0.5 µg/mL (≈ 1.58 µM)
- MIC90 (Staphylococcus aureus [6]): 4 µg/mL (≈ 12.6 µM)
- Ki [7]: 1.1 µM
- EC50 [8]: 1.7 µM
- EC5 [9]: 0.002 µM
- K (Cannabinoid receptor 1 [10]): 1.04 µM
- EC50 [11]: 0.7 µM
- Efficacy [12]: 100%
- Efficacy [13]: 18%
- MIC (Escherichia coli): 4 µg/mL
- Efficacy [14]: 34%
- K [15]: 0.38 µM
- IC50 [16]: 1.3 µM
- Ki (Cannabinoid receptor 1 [17]): 0.44 µM
- Efficacy [18]: 74%
- IC50 [19]: 66 µM
- EC50 [20]: 5.1 µM
- MIC90 (Staphylococcus aureus [21]): 4 µg/mL (≈ 12.6 µM)
- log(activity) (Staphylococcus aureus [22]): 2.8

Compound: CCCCCCCc1cc(O)c2c(c1)OC(C)(C)[C@@H]1CCC(C)=C[C@@H]21
- Ki (Cannabinoid receptor 2): 0.0069 µM
- Ki (Cannabinoid receptor 1 [23]): 0.13 µM

— ChEMBL document CHEMBL5096151, “Phytocannabinoid Pharmacology: Medicinal Properties of Cannabis sativa Constituents Aside from the "Big Two"” (J Nat Prod, 2021)
